Measurements: US20200190073A1, “SUBSTITUTED SUCCINIMIDE DERIVATIVES AS PESTICIDES” (BASF SE, priority 2017, published 2020)

Tests used:
Type in all cases: in vivo
[1] = system: Diamond back moth (Plutella xylostella); test: B.1 Diamond back moth, cabbage leaf dip; conditions: foliar, 72 h, read-out: mortality in comparison with untreated controls
Method: B.1 Diamond back moth (Plutella xylostella)
The active compound was dissolved at the desired concentration in a mixture of 1:1 (vol:vol) distilled water:acetone. Surfactant (Kinetic HV) was added at a rate of 0.01% (vol/vol). The test solution was prepared at the day of use.
Leaves of cabbage were dipped in test solution and air-dried. Treated leaves were placed in petri dishes lined with moist filter paper and inoculated with ten 3rd instar larvae. Mortality was recorded 72 hours after treatment. Feeding damages were also recorded using a scale of 0-100%.

[2] = system: Green Peach Aphid (Myzus persicae); test: B.2 Green peach aphid, artificial diet, systemic; conditions: 72 h, read-out: mortality in comparison with untreated controls
Description: B.2 Green Peach Aphid (Myzus persicae)
For evaluating control of green peach aphid (Myzus persicae) through systemic means the test unit consisted of 96-well-microtiter plates containing liquid artificial diet under an artificial mem brane.
The compounds were formulated using a solution containing 75% v/v water and 25% v/v DMSO. Different concentrations of formulated compounds were pipetted into the aphid diet, using a custom built pipetter, at two replications.
After application, 5-8 adult aphids were placed on the artificial membrane inside the microtiter plate wells. The aphids were then allowed to suck on the treated aphid diet and incubated at about 23±1° C. and about 50±5% relative humidity for 3 days. Aphid mortality and fecundity was then visually assessed.

[3] = system: Vetch Aphid (Megoura viciae); test: B.3 Vetch aphid, broad bean leaf disks; conditions: foliar, 120 h, read-out: mortality in comparison with untreated controls
Method: B.3 Vetch Aphid (Megoura viciae)
For evaluating control of vetch aphid (Megoura viciae) through contact or systemic means the test unit consisted of 24-well-microtiter plates containing broad bean leaf disks.
The compounds were formulated using a solution containing 75% v/v water and 25% v/v DMSO. Different concentrations of formulated compounds were sprayed onto the leaf disks at 2.5 μl, using a custom built micro atomizer, at two replications.
After application, the leaf disks were air-dried and 5-8 adult aphids placed on the leaf disks inside the microtiter plate wells. The aphids were then allowed to suck on the treated leaf disks and incubated at about 23±1° C. and about 50±5% relative humidity for 5 days. Aphid mortality and fecundity was then visually assessed.

[4] = system: Tobacco Budworm (Heliothis virescens); test: B.4 Tobacco budworm, insect diet with eggs; conditions: 120 h, read-out: mortality in comparison with untreated controls
Method: B.4 Tobacco Budworm (Heliothis virescens)
For evaluating control of tobacco budworm (Heliothis virescens) the test unit consisted of 96-well-microtiter plates containing an insect diet and 15-25 H. virescens eggs.
The compounds were formulated using a solution containing 75% v/v water and 25% v/v DMSO. Different concentrations of formulated compounds were sprayed onto the insect diet at 10 μl, using a custom built micro atomizer, at two replications.
After application, microtiter plates were incubated at about 28±1° C. and about 80±5% relative humidity for 5 days. Egg and larval mortality was then visually assessed.

[5] = system: Boll Weevil (Anthonomus grandis); test: B.5 Boll weevil, insect diet with eggs; conditions: 120 h, read-out: mortality in comparison with untreated controls
Method: B.5 Boll Weevil (Anthonomus grandis)
For evaluating control of boll weevil (Anthonomus grandis) the test unit consisted of 96-well-microtiter plates containing an insect diet and 5-10 A. grandis eggs.
The compounds were formulated using a solution containing 75% v/v water and 25% v/v DMSO. Different concentrations of formulated compounds were sprayed onto the insect diet at 5 μl, using a custom built micro atomizer, at two replications.
After application, microtiter plates were incubated at about 25±1° C. and about 75±5% relative humidity for 5 days. Egg and larval mortality was then visually assessed.

[6] = system: Orchid Thrips (Dichromothrips Corbetti); test: B.7 Orchid thrips, floral immersion; conditions: Thrips, 72 h, read-out: mortality in comparison with untreated controls
Method: B.7 Orchid Thrips (Dichromothrips Corbetti)
Dichromothrips corbetti adults used for bioassay were obtained from a colony maintained continuously under laboratory conditions. For testing purposes, the test compound is diluted in a 1:1 mixture of acetone:water (vol:vol), plus Kinetic HV at a rate of 0.01% v/v.
Thrips potency of each compound was evaluated by using a floral-immersion technique. All petals of individual, intact orchid flowers were dipped into treatment solution and allowed to dry in Petri dishes. Treated petals were placed into individual re-sealable plastic along with about 20 adult thrips. All test arenas were held under continuous light and a temperature of about 28° C. for duration of the assay. After 3 days, the numbers of live thrips were counted on each petal. The percent mortality was recorded 72 hours after treatment.

[7] = system: Rice Green Leafhopper (Nephotettix virescens); test: B.8 Rice green leafhopper, sprayed rice seedlings; conditions: 72 h, read-out: mortality in comparison with untreated controls
Method: B.8 Rice Green Leafhopper (Nephotettix virescens)
(§1) Rice seedlings were cleaned and washed 24 hours before spraying. The active compounds were formulated in 1:1 acetone:water (vol:vol), and 0.01% vol/vol surfactant (Kinetic HV) was added. Potted rice seedlings were sprayed with 5-6 ml test solution, air dried, covered with Mylar cages and inoculated with 10 adults. Treated rice plants were kept at about 28-29° C. and relative humidity of about 50-60%. Percent mortality was recorded after 72 hours.

[8] = system: Red Spider Mite (Tetranychus kanzawai); test: B.9 Red spider mite, sprayed cowpea beans; conditions: 72 h, read-out: mortality in comparison with untreated controls
Method: B.9 Red Spider Mite (Tetranychus kanzawai)
The active compound was dissolved at the desired concentration in a mixture of 1:1 (vol:vol) distilled water:acetone. Add surfactant (Kinetic HV) was added at a rate of 0.01% (vol/vol).The test solution was prepared at the day of use.
Potted cowpea beans of 4-5 days of age were cleaned with tap water and sprayed with 1-2 ml of the test solution using air driven hand atomizer. The treated plants were allowed to air dry and afterwards inoculated with 30 or more mites by clipping a cassava leaf section from rearing population. Treated plants were placed inside a holding room at about 25-27° C. and about 50-60% relative humidity. Percent mortality was assessed 72 hours after treatment.

[9] = system: Green Soldier Stink Bug (Nezara viridula); test: B.11 Green soldier stink bug, sprayed soybean pods; conditions: 120 h, read-out: mortality in comparison with untreated controls
Method: B.11 Green Soldier Stink Bug (Nezara viridula)
The active compound was dissolved at the desired concentration in a mixture of 1:1 (vol:vol) distilled water:acetone. Surfactant (Kinetic HV) was added at a rate of 0.01% (vol/vol). The test solution was prepared at the day of use. Soybean pods were placed in glass Petri dishes lined with moist filter paper and inoculated with ten late 3rd instar N. viridula. Using a hand atomizer, approximately 2 ml solution is sprayed into each Petri dish. Assay arenas were kept at about 25° C. Percent mortality was recorded after 5 days.

[10] = system: Neotropical Brown Stink Bug (Euschistus heros); test: B.12 Neotropical brown stink bug, dipped pole bean; conditions: 120 h, read-out: mortality in comparison with untreated controls
Method: B.12 Neotropical Brown Stink Bug (Euschistus heros)
For evaluating control of Euschistus heros through contact the test unit consisted of 100 ml disposable plastic beakers with transparent lids.
The compounds were formulated using a solution containing 50% water and 50% acetone. 50 ml of different concentrations of formulated compounds or mixtures were prepared in a glass petri dish and used for dipping three 6 cm sections of fresh pole bean. Each treatment was replicated eight times.
After application, the pole bean sections were air-dried and 5 adult E. heros placed in each beaker. The E. heros were then allowed to suck on the treated pole bean sections and incubated at 23±1° C., 50±5% RH for 5 days. E. heros mortality was then visually assessed.

[11] = system: Orchid Thrips (Dichromothrips Corbetti); test: CE.3 Orchid thrips, comparative test; conditions: 96 h, read-out: % mortality in comparison to untreated controls
Method: (§2) The tables show % mortality in comparison to untreated controls.
CE.3 Orchid Thrips (Dichromothrips Corbetti)
Dichromothrips corbetti adults used for bioassay were obtained from a colony maintained continuously under laboratory conditions. For testing purposes, the test compound was diluted to a concentration of 300 ppm (wt compound: vol diluent) in a 1:1 mixture of acetone:water (vol:vol), plus 0.01% vol/vol Kinetic® surfactant.
Thrips potency of each compound was evaluated by using a floral-immersion technique. Plastic petri dishes were used as test arenas. All petals of individual, intact orchid flowers were dipped into treatment solution and allowed to dry. Treated flowers were placed into individual petri dishes along with 10-15 adult thrips. The petri dishes were then covered with lids. All test arenas were held under continuous light and a temperature of about 280C for duration of the assay. After 4 days, the numbers of live thrips were counted on each flower, and along inner walls of each petri dish. The level of thrips mortality was extrapolated from pre-treatment thrips numbers.

[12] = system: Rice Green Leafhopper (Nephotettix virescens); test: CE.5 Rice green leafhopper, comparative test; conditions: 72 h, read-out: % mortality in comparison to untreated controls
Method: as §2
CE.5 Rice Green Leafhopper (Nephotettix virescens)
as §1, with “50:50” for “1:1”, “0.1%” for “0.01%”, “(EL 620)” for “(Kinetic HV)”, “5” for “5-6”, “placed in” for “covered with Mylar”

SMILES | mortality at 300 ppm [1] [%] | mortality at 2500 ppm [2] [%] | mortality at 2500 ppm [3] [%] | mortality at 2500 ppm [4] [%] | mortality at 2500 ppm [5] [%] | mortality at 300 ppm [6] [%] | mortality at 300 ppm [7] [%] | mortality at 300 ppm [8] [%] | mortality at 300 ppm [9] [%] | mortality at 500 ppm [10] [%] | mortality at 10 ppm [11] [%] | mortality at 3 ppm [12] [%]
O=C(N[C@@H]1CC(=O)N(C2CC2)C1=O)c1ccc(C2=NO[C@@](c3cc(Cl)c(F)c(Cl)c3)(C(F)(F)F)C2)cc1Cl [Compound I-1-25, 2-Chloro-N-[(3R)-1-cyclopropyl-2,5-dioxo-pyrrolidin-3-yl]-4-[(5S)-5-(3,5-dichloro-4-fluoro-phenyl)-5-(trifluoromethyl)-4H-isoxazol-3-yl]benzamide] | > 75 | > 75 | > 75 | > 75 | > 75 | > 75 | > 75 | > 75 | > 75 | > 75 | – | –
O=C(N[C@@H]1CC(=O)N(O)C1=O)c1ccc(C2=NOC(c3cc(Cl)c(F)c(Cl)c3)(C(F)(F)F)C2)cc1Cl (stereo partly drawn) [Compound I-1-33, 2-Chloro-4-[5-(3,5-dichloro-4-fluoro-phenyl)-5-(trifluoromethyl)-4H-isoxazol-3-yl]-N-[(3R)-1-hydroxy-2,5-dioxo-pyrrolidin-3-yl]benzamide] | > 75 | > 75 | – | > 75 | > 75 | > 75 | – | – | – | – | – | –
CNN1C(=O)C[C@@H](NC(=O)c2ccc(C3=NOC(c4cc(Cl)cc(Cl)c4)(C(F)(F)F)C3)cc2C)C1=O (stereo partly drawn) [Compound I-1-45, 4-[5-(3,5-Dichlorophenyl)-5-(trifluoromethyl)-4H-isoxazol-3-yl]-2-methyl-N-[(3R)-1-(methylamino)-2,5-dioxo-pyrrolidin-3-yl]benzamide] | > 75 | > 75 | > 75 | > 75 | > 75 | > 75 | – | > 75 | > 75 | – | – | –
CCN1C(=O)C[C@@H](NC(=O)c2ccc(C3=NOC(c4cc(Cl)c(F)c(Cl)c4)(C(F)(F)F)C3)cc2C)C1=O (stereo partly drawn) [Compound I-1-50] | > 75 | > 75 | > 75 | > 75 | > 75 | > 75 | > 75 | > 75 | > 75 | – | 100 | –
CCN1C(=O)C[C@@H](NC(=O)c2ccc(C3=NOC(c4cc(Cl)cc(Cl)c4)(C(F)(F)F)C3)cc2C)C1=O (stereo partly drawn) [Compound I-1-51] | > 75 | > 75 | > 75 | > 75 | > 75 | > 75 | > 75 | > 75 | > 75 | – | 100 | 90
CON1C(=O)C[C@@H](NC(=O)c2ccc(C3=NOC(c4cc(Cl)cc(Cl)c4)(C(F)(F)F)C3)cc2C)C1=O (stereo partly drawn) [Compound I-1-55, 4-[5-(3,5-Dichlorophenyl)-5-(trifluoromethyl)-4H-isoxazol-3-yl]-N-[(3R)-1-methoxy-2,5-dioxo-pyrrolidin-3-yl]-2-methyl-benzamide] | > 75 | > 75 | > 75 | > 75 | > 75 | > 75 | > 75 | > 75 | > 75 | – | – | –
Cc1cc(C2=NOC(c3cc(Cl)c(F)c(Cl)c3)(C(F)(F)F)C2)ccc1C(=O)N[C@@H]1CC(=O)N(CC(F)(F)F)C1=O (stereo partly drawn) [Compound I-1-57] | > 75 | > 75 | > 75 | > 75 | > 75 | > 75 | > 75 | > 75 | – | – | 100 | –
O=C(N[C@@H]1CC(=O)N(CC(F)(F)F)C1=O)c1ccc(C2=NOC(c3cc(Cl)c(F)c(Cl)c3)(C(F)(F)F)C2)cc1Cl (stereo partly drawn) [Compound I-1-59] | > 75 | > 75 | > 75 | > 75 | > 75 | > 75 | > 75 | > 75 | > 75 | – | 100 | –
